Laboratory results: patent US20060154922A1, “Muscarinic agonists” (ELILILLY AND COMPANY, priority 2003, published 2006)
Where two headings read alike, the source gives them in different places.

Test system: Male Sprague-Dawley rats
Conditions: six-hour delay

With `Nc1c2c(nc3ccccc13)CCCC2` [Tacrine, tacrine] the “retention (errors in the retention session)” value (3 mg/kg s.c. immediately after the sampling phase) was “not” and the “retention (errors in the retention session)” value (10 mg/kg s.c. immediately after the sampling phase) was “significantly improved retention”.
